IC50 data for 16 molecules are collected here from patent publication US10662159B2, “ABHD6 and dual ABHD6/MGL inhibitors and their uses” (MAKScientific, LLC, priority 2017, dated 2020).

Some results are limits rather than exact numbers.

By IC50 is commonly meant the concentration needed to halve the response being measured.

What all share (assay type): biochemical
In one experiment the target is hABHD6 (Homo sapiens (Human), UniProt Q9BV23). The experiment can be described thus: Fluorescent assay for hABHD6 (AHMMCE substrate hydrolysis). As to conditions: membrane fraction containing full-length hABHD6, 20 μM AHMMCE; read-out: ABHD6 Inhibition IC50. The protocol: (§1) Certain compounds were tested for their ABHD6 and dual ABHD6/MGL inhibitory activity, which is expressed as % of inhibition or IC50 values in Table 1. The percentage of inhibition describes the percentage by which the inhibitor reduces the velocity/rate of 2-AG hydrolysis by ABHD6, and MGL or AEA hydrolysis by FAAH. […] The lower the IC50 values, the higher its inhibitory activity. A detailed description of the methods used to test inhibitory activity of compounds is given below.
Fluorescent Assays Protocol for hABHD6
Initial Fluorescent Inhibition Assay (3-Point)—
In each well of a 96-well plate 8 μL of membrane fraction containing full-length hABHD6 (1 μg total protein) was mixed with 168 μL of assay buffer (50 mM Tris-HCl, pH 7.6), and 20 μL of diluted compound (diluted in a dilution buffer consisting of 50% DMSO/50% assay buffer v/v). Each plate was incubated at RT for 15 minutes before adding 4 μL of 1 mM AHMMCE substrate (final concentration of 20 μM AHMMCE and final volume of 200 μL). The reaction was allowed to proceed for 1 hr at RT before the fluorescence was read at λex 360 nm and λem 460 nm and the inhibition calculated. Each experiment can test 8 compounds at three concentrations (usually 10 μM, 1 μM, and 100 nM).
IC50 Determination Assay (8-Point)—
A more detailed assay with an extended range tests compounds over 8 concentrations depending on the pre-determined approximate IC50 value from the initial screen. […] The assay was conducted in 96 well plate with each well containing the same reaction mixture detailed above in the 3-point screen. The relative fluorescence is quantified into coumarin produced by using a standard curve of HMMC in triplicate on each plate. Results are normalized to the negative control wells and the IC50 is determined using a non-linear regression curve fit in Prism, version 5 (GraphPad, San Diego, Calif.).

A further experiment deals with hMGL (Homo sapiens (Human), UniProt Q99685). Briefly: Fluorescent assay for hMGL (AHMMCE substrate hydrolysis). As to conditions: E. coli lysate containing hMGL, read-out: hMGL Inhibition IC50. The protocol: as §1
Preparation of Human MAGL (hMAGL)
Fluorescent Assay Protocol for hMGL
This medium throughput assay involved a 96-well plate format in which hMGL activity was monitored by the hydrolysis of the substrate […] (AHMMCE) to form the fluorescent product, coumarin. […] Upon the addition of AHMMCE, the reaction was incubated at 25° C. for 120 min; fluorescence readings were taken every 15 min at 360 nm/460 nm (λexcitation/λemission) using a Synergy HT Plate Reader (Bio-Tek, Winooski, Vt.). […] External standards were used to convert relative fluorescence units to the amount of 4-methylcoumarin formed. All MGL assays were performed in triplicate for each inhibitor concentration, and IC50 values were calculated using Prizm software (GraphPad Software, Inc., San Diego, Calif.).

Another experiment addresses Rat ΔTM FAAH (Rattus norvegicus (Rat), UniProt P97612). Briefly: Fluorescent assay for rat ΔTM FAAH (AAMCA substrate). The following applies: ΔTM rFAAH, AAMCA 20 μM; read-out: rFAAH Inhibition IC50. On the procedure: (§2) Certain compounds were tested for their ABHD6 and dual ABHD6/MGL inhibitory activity, which is expressed as % of inhibition or IC50 values in Table 1. The percentage of inhibition describes the percentage by which the inhibitor reduces the velocity/rate of 2-AG hydrolysis by ABHD6, and MGL or AEA hydrolysis by FAAH. The IC50 is the concentration of the inhibitor, which results in 50% inhibition of the velocity/rate of 2-AG hydrolysis by ABHD6 or MGL. The IC50 is the concentration of the inhibitor, which results in 50% inhibition of the velocity/rate of AEA hydrolysis by FAAH. The lower the IC50 values, the higher its inhibitory activity. A detailed description of the methods used to test inhibitory activity of compounds is given below.
Example 79. Preparation of Transmembrane Domain-Deleted Rat FAAH (ΔTM rFAAH)
Rat ΔTM FAAH was expressed in E. coli cells and purified using the procedure disclosed by Patricelli et al. Biochemistry (1998) 37: 15177-15187.
Example 81. Fluorescent Assay Protocol for Rat ΔTM FAAH
(§3) The fluorescence reading at the 3 hour time point (linear enzyme kinetics) was used to calculate percent inhibition based on control assays without inhibitor present. All FAAH assays were performed in triplicate for each inhibitor concentration, and IC50 values determined using Prizm software (GraphPad Software, Inc.).

The next experiment has as its target hFAAH (Homo sapiens (Human), UniProt O00519). The experiment can be described thus: Fluorescent assay for hFAAH. The following applies: MBP ΔTM hFAAH, procedure as for rFAAH; read-out: hFAAH Inhibition IC50. The protocol: as §2
Example 80. Preparation of Human FAAH in Fusion with N-Terminal Maltose Binding Tag (MBP ΔTM hFAAH)
Human FAAH without putative transmembrane domain following maltose binding protein was expressed in E. coli cells using pMALcE4 vector Alapafuja et al J. Med. Chem. (2012) 55: 10074-89.
as §3
Example 82. Fluorescent Assay Protocol for hFAAH
Procedure was followed as described for rFAAH.

Rat ΔTM FAAH, sequence (P97612 30-579): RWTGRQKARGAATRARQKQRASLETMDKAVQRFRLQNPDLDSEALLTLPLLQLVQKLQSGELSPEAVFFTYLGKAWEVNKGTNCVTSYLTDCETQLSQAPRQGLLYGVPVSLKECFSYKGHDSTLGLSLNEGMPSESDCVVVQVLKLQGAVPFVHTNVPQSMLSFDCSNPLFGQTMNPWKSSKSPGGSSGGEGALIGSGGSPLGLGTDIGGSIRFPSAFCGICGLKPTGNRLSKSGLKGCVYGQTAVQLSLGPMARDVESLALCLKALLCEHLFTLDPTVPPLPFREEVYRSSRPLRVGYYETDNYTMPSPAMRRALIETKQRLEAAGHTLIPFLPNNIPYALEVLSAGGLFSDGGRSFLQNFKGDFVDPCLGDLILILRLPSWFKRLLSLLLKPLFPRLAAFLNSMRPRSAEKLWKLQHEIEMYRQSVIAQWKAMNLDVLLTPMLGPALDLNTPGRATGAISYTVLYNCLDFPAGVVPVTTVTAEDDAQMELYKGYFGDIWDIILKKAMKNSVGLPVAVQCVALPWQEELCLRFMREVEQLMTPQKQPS
hABHD6, sequence (Q9BV23 whole entry): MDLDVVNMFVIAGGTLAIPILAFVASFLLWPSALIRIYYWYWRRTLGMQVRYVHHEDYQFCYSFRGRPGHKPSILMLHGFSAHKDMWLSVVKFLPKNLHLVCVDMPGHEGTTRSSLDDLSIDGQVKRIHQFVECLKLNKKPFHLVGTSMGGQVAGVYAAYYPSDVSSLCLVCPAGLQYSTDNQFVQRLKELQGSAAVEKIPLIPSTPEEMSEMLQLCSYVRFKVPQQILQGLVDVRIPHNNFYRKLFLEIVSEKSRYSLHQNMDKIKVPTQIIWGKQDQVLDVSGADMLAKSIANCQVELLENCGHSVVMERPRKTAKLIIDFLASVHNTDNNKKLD
hFAAH, sequence (O00519 30-579): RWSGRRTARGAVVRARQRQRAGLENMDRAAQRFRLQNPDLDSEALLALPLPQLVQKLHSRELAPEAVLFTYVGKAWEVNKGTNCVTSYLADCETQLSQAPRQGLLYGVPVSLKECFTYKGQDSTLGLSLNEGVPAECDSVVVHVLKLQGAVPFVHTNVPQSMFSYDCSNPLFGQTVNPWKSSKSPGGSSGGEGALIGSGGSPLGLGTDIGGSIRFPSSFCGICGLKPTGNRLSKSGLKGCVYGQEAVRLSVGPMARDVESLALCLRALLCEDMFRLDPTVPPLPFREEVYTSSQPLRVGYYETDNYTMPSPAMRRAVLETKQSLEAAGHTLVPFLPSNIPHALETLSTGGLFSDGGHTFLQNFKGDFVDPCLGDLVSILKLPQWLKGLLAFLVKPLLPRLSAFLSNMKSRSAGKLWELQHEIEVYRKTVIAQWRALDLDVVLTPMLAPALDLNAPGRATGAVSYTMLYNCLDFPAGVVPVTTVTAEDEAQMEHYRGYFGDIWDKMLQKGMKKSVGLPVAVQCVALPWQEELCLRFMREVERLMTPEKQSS
hMGL, sequence (Q99685 whole entry): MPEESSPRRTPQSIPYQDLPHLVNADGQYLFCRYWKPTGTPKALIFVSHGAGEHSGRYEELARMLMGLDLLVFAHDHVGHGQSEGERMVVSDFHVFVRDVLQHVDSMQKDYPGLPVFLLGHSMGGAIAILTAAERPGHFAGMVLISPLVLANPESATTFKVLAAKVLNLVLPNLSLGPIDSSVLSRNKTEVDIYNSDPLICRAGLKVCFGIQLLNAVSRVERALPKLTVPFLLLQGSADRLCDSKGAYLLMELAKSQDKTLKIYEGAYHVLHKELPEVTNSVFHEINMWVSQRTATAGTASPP

As for `O=C(OC(C(F)(F)F)C(F)(F)F)N1CCc2cc(Br)ccc2C1` [Example 17, 1,1,1,3,3,3-Hexafluoropropan-2-yl 6-bromo-3,4-dihydroisoquinoline-2(1H)-carboxylate], the IC50 at hABHD6 is 10 to 100 nM; at hMGL it was over 1000 nM; on Rat ΔTM FAAH, over 1000 nM; at hFAAH, over 1000 nM.

As to `O=C(OC(C(F)(F)F)C(F)(F)F)N1CCc2ccc(Br)cc2C1` [Example 18, 1,1,1,3,3,3-Hexafluoropropan-2-yl 7-bromo-3,4-dihydroisoquinoline-2(1H)-carboxylate], the 50% inhibitory concentration (IC50) at hABHD6 is 100 to 1000 nM; on hMGL, over 1000 nM; at Rat ΔTM FAAH, over 1000 nM; at hFAAH it was over 1000 nM.

`COc1cccc2c1CN(C(=O)OC(C(F)(F)F)C(F)(F)F)C2` [Example 19, 1,1,1,3,3,3-Hexafluoropropan-2-yl 4-methoxyisoindoline-2-carboxylate]: the IC50 is 10 to 100 nM on hABHD6, over 1000 nM on hMGL, over 1000 nM on Rat ΔTM FAAH and over 1000 nM at hFAAH.

Regarding `CC1CN(C(=O)OC(C(F)(F)F)C(F)(F)F)Cc2ccccc21` (stereo not shown) [Example 20, 1,1,1,3,3,3-Hexafluoropropan-2-yl 4-methyl-3,4-dihydroisoquinoline-2(1H)-carboxylate], the IC50 is 100 to 1000 nM at hABHD6, over 1000 nM on hMGL, over 1000 nM at Rat ΔTM FAAH and over 1000 nM on hFAAH.

As for `COc1cc2c(cc1OC)CN(C(=O)OC(C(F)(F)F)C(F)(F)F)C2` [Example 21, 1,1,1,3,3,3-Hexafluoropropan-2-yl 5,6-dimethoxyisoindoline-2-carboxylate], the IC50 on hABHD6 was 10 to 100 nM; at hMGL, over 1000 nM; at Rat ΔTM FAAH, over 1000 nM; at hFAAH it was over 1000 nM.

Regarding `O=C(OC(C(F)(F)F)C(F)(F)F)N1CCCc2ccccc2C1` [Example 24, 1,1,1,3,3,3-Hexafluoropropan-2-yl 1,3,4,5-tetrahydro-2H-benzo[c]azepine-2-carboxylate], the IC50 on hABHD6, at hMGL, on Rat ΔTM FAAH and at hFAAH was over 1000 nM each time.

For the molecule `COc1ccc(-c2ccc3c(c2)CN(C(=O)OC(C(F)(F)F)C(F)(F)F)C3)cc1F` [Example 26, 1,1,1,3,3,3-Hexafluoropropan-2-yl 5-(3-fluoro-4-methoxyphenyl)isoindoline-2-carboxylate], the IC50 was 10 to 100 nM at hABHD6, over 1000 nM on hMGL, over 1000 nM at Rat ΔTM FAAH and over 1000 nM on hFAAH.

For `O=C(OC(C(F)(F)F)C(F)(F)F)N1CCc2cccc(-c3ccccc3)c2C1` [Example 27, 1,1,1,3,3,3-Hexafluoropropan-2-yl 8-phenyl-3,4-dihydroisoquinoline-2(1H)-carboxylate], the IC50 at hABHD6, at hMGL, on Rat ΔTM FAAH and at hFAAH was over 1000 nM throughout.

Consider `O=C(OC(C(F)(F)F)C(F)(F)F)N1Cc2ccc(OCC(F)F)cc2C1` [Example 45, 1,1,1,3,3,3-Hexafluoropropan-2-yl 5-(2,2-difluoroethoxy)isoindoline-2-carboxylate], for which the IC50 on hABHD6 is 10 to 100 nM; on hMGL, 10 to 100 nM; at Rat ΔTM FAAH, over 1000 nM; on hFAAH, over 1000 nM.

As for `O=C(OC(C(F)(F)F)C(F)(F)F)N1CC2(CC(Oc3cccc(C(F)(F)F)c3)C2)C1` [Example 52, 1,1,1,3,3,3-Hexafluoropropan-2-yl 6-(3-(trifluoromethyl)phenoxy)-2-azaspiro [3.3]heptane-2-carboxylate], the IC50 was 10 to 100 nM on hABHD6, 10 to 100 nM at hMGL, over 1000 nM at Rat ΔTM FAAH and over 1000 nM at hFAAH.

`O=C(OC(C(F)(F)F)C(F)(F)F)N1CC2(CC(Oc3cccc(F)c3)C2)C1` [Example 53, 1,1,1,3,3,3-Hexafluoropropan-2-yl-6-(3-fluorophenoxy)-2-azaspiro[3.3]heptane-2-carboxylate]: the IC50 at hABHD6 was 10 to 100 nM; at hMGL, 10 to 100 nM; at Rat ΔTM FAAH, over 1000 nM; on hFAAH it was over 1000 nM.

Turning to `O=C(OC(C(F)(F)F)C(F)(F)F)N1CC2(CC(Oc3cncc(F)c3)C2)C1` [Example 60, 1,1,1,3,3,3-Hexafluoropropan-2-yl 6-((5-fluoropyridin-3-yl)oxy)-2-azaspiro[3.3]heptane-2-carboxylate], the 50% inhibitory concentration (IC50) at hABHD6 was 10 to 100 nM; on hMGL it was over 1000 nM; at Rat ΔTM FAAH it was over 1000 nM; on hFAAH it was over 1000 nM.

As for `CC1(C)C2C(=O)N(OC(=O)N3CC4(CC(Oc5cccc(C(F)(F)F)c5)C4)C3)C(=O)C21` (stereo not shown) [Example 63, 6,6-Dimethyl-2,4-dioxo-3-azabicyclo[3.1.0]hexan-3-yl 6-(3-(trifluoromethyl)phenoxy)-2-azaspiro[3.3]heptane-2-carboxylate], the IC50 on hABHD6 is 10 to 100 nM; on hMGL, over 1000 nM; at Rat ΔTM FAAH, over 1000 nM; at hFAAH it was over 1000 nM.

`CC1(C)C2C(=O)N(OC(=O)N3CC4(CCC(Oc5cncc(F)c5)C4)C3)C(=O)C21` (stereo not shown) [Example 64, 6,6-Dimethyl-2,4-dioxo-3-azabicyclo[3.1.0]hexan-3-yl 6-((5-fluoropyridin-3-yl)oxy)-2-azaspiro[3.4]octane-2-carboxylate]: the IC50 at hABHD6 was 10 to 100 nM; on hMGL, over 1000 nM; at Rat ΔTM FAAH, over 1000 nM; at hFAAH, over 1000 nM.

On to `O=C(OC(C(F)(F)F)C(F)(F)F)N1CC[C@]2(C1)C[C@@H](OC(c1ccc(F)cc1)c1ccc(F)cc1)C2` [Example 67, 1,1,1,3,3,3-Hexafluoropropan-2-yl (2r,4s)-2-(bis(4-fluorophenyl)methoxy)-6-azaspiro[3.4]octane-6-carboxylate], for which the IC50 on hABHD6 is 10 to 100 nM; at hMGL, 10 to 100 nM; on Rat ΔTM FAAH, 10 to 100 nM; on hFAAH, over 1000 nM.

As for `O=C(OC(C(F)(F)F)C(F)(F)F)N1CC[C@]2(C1)C[C@H](OC(c1ccc(F)cc1)c1ccc(F)cc1)C2` [Example 68, 1,1,1,3,3,3-Hexafluoropropan-2-yl (2s,4r)-2-(bis(4-fluorophenyl)methoxy)-6-azaspiro[3.4]octane-6-carboxylate], the IC50 was over 1000 nM at hABHD6, 10 to 100 nM on hMGL, 10 to 100 nM at Rat ΔTM FAAH and over 1000 nM at hFAAH.
